# Results reported in PubChem BioAssay AID2060889 (Molecular Pharmacology Branch, DTP, NCI, 2025).
# Several values for one entry are separate records, joined by “and”; a condition that tells them apart may be missing. Equal entries are not always repeated.
# System: LG0567-F671-PDC complex spheroids viability
# Assay: Anticancer human tumor LG0567-F671-PDC patient-derived lung adenocarcinoma cell line growth inhibition [RAS]
# Details: for viability, T/C: stronger effect = lower value
# From the text: RAS pathway inhibitors in Combinations in Complex Spheroids
# A high-throughput screen of multi-cell type tumor spheroids was designed to identify active combinations of RAS pathway inhibitors and targeted small molecules. Complex spheroids include a stromal component modeled by human endothelial cells (HUVEC) and fibroblasts modeled by human mesenchymal stem cells (MSCs). The concentration ranges selected for each drug and investigational agent were based upon clinically achievable concentrations if the clinical Cmax of the agent was known.
# Compounds. The drugs and investigational agents: abemaciclib (NSC768073), cobimetinib (NSC768068), divarasib (GDC6063, NSC841802), docetaxel (NSC628503), GDC-1971 (RLY-1971, NSC841576), gemcitabine (NSC613327), inavolisib (NSC800729), ipatasertib (NSC767898), KB-0742 (NSC834161), MRTX-1133 (NSC836407), osimertinib (NSC779217), RMC-4630 (NSC839698), RMC-6236 (NSC851965), RMC-6291 (NSC852671), Ro-3306 (NSC812927), sapanisertib (NSC764658), SN-38 (NSC673596), staurosporine (NSC755774), SY5609 (NSC837396), and tovorafenib (DAY101, NSC766906), were obtained from the National Cancer Institute (NCI) Developmental Therapeutics Program Chemical Repository. The FDA-approved anticancer drug set is available from the NCI Developmental Therapeutics Program. […] The stock solutions were prepared in dimethyl sulfoxide (DMSO, Sigma-Aldrich, St. Louis, MO, cat. D2650) at 800-fold the tested concentration and stored at -70 degrees C prior to their use. All drugs and investigational agents were tested over a range starting from a high concentration at or near the clinical Cmax and decreasing in half-log increments. If the clinical Cmax for an agent had not been determined, the highest concentration tested was 10 microM.
# Cell Culture. All cells were maintained in an incubator at 37 degrees C and 5% CO2 with 95% humidity. The PDC lines were cultured according to standard operating procedures established by the NCI PDMR. All PDCs were thawed and cultured in Matrigel-coated flasks prepared with a working solution of 1X Ham's F-12 nutrient mix, without supplementation (Invitrogen, Waltham, MA, cat. 11765054), 100 U/mL penicillin-streptomycin (Invitrogen, cat. 15140122), and 2.5% Matrigel (Corning Inc., Corning, NY, cat. 354248) for the first three passages. The 362531-283-R-J2-PDC and 782815-120-R-J1-PDC lines were cultured in 6C/Colon 1B media, which includes advanced DMEM/F-12 (Thermo Fisher Scientific, cat. 12634028), 10 mM HEPES (Thermo Fisher Scientific, cat. 15630080), 1X GlutaMAX supplement (Thermo Fisher Scientific, cat. 35050061), 0.1 mg/mL primocin (InvivoGen, San Diego, CA, cat. ant-pm-2), 10% defined fetal bovine serum, heat inactivated (HyClone Laboratories Inc., Logan, UT, cat. SH30070.03HI), 50% L-WRN conditioned media (ATCC, cat. CRL-3276), 1.25 mM N-Acetyl-L-cysteine (Sigma-Aldrich, cat. A9165), 10 mM nicotinamide (Sigma-Aldrich, cat. N0636), 1X B-27 supplement (Thermo Fisher Scientific, cat. 17504044), 1X N-2 supplement (Thermo Fisher Scientific, cat. 17502048), 50 ng/mL human EGF (Thermo Fisher Scientific, cat. PHG0311), and 10 microM Y-27632 dihydrochloride (Tocris Bioscience, cat. 1254). The K12877-001-R-J1-PDC line was cultured in 6I media, which includes all 6C/Colon 1B media plus 10 ng/mL human FGF-10 (PeproTech, cat. 100-26), 1 ng/mL human FGF-2 (PeproTech, cat. 100-18B), 1 µM prostaglandin E2 (Tocris Bioscience, cat. 2296), […] hydrocortisone (Sigma-Aldrich, cat. H4001), and […] bovine insulin (Sigma-Aldrich, cat. I6634). The K86415-001-R-J1-PDC line was cultured in 6D media, which includes all 6C/Colon 1B media components minus the L-WRN conditioned media. The 485176-168-R4-J1-PDC was cultured in PANC media, which includes all 6C/Colon 1B media plus 100 ng/mL human FGF-10 (PeproTech, cat. 100-26), 500 nM SB-431542 (Selleckchem, cat. S1067), and 10 nM gastrin (Tocris Bioscience, cat. 3006). […]
# [1] = compound alone, run of 09/09/2024
# 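Also: spheroids exposed to compound for seven days before readout.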
# 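For IC50 in this document: luminescence signal used as a proxy for viable cells.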
SMILES,"viability, T/C (compound 0.0316 µM)","viability, T/C (compound 0.1 µM)","viability, T/C (compound 0.316 µM)","viability, T/C (compound 1 µM)","viability, T/C (compound 3.16 µM)","viability, T/C (compound 10 µM)","viability, T/C (compound 0.00316 µM)","viability, T/C (compound 0.01 µM)",IC50 (curve of compound),also measured
C#Cc1c(F)ccc2cc(O)cc(-c3ncc4c(N5CC6CCC(C5)N6)nc(OCC56CCCN5CC(F)C6)nc4c3F)c12 (stereo unspecified),91.2% [middle of 8 runs],80% [middle of 8 runs],56.1% [middle of 8 runs],36.8% [middle of 8 runs],19.6% [middle of 8 runs],12.4% [middle of 8 runs],,,,IC50 [1]: 494 nM [middle of 8 runs]
C=CC(=O)N1CCN(c2nc(OCC3CCCN3C)nc3c(F)c(-c4nc(N)cc(C)c4C(F)(F)F)c(Cl)cc23)C(C)C1 (stereo unspecified),13.4% [middle of 12 runs],13.5% [middle of 12 runs],13.8% [middle of 12 runs],15.5% [middle of 12 runs],,,16.6% [middle of 12 runs],14.1% [middle of 12 runs],< 3.16 nM,IC50 [1]: < 3.16 nM
C=CC(=O)Nc1cc(Nc2nccc(-c3cn(C)c4ccccc34)n2)c(OC)cc1N(C)CCN(C)C,86% [middle of 4 runs],68.7% [middle of 4 runs],42.7% [middle of 4 runs],23.2% [middle of 4 runs],,,,92.5% [middle of 4 runs],225 nM [middle of 4 runs],
CC(C)NCC(C(=O)N1CCN(c2ncnc3c2C(C)CC3O)CC1)c1ccc(Cl)cc1 (stereo unspecified),101% [middle of 4 runs],91.3% [middle of 4 runs],77.4% [middle of 4 runs],61.6% [middle of 4 runs],,63.5% [middle of 4 runs],,,> 10000 nM,
CC(C)n1nc(-c2ccc3oc(N)nc3c2)c2c(N)ncnc21,56.1% [middle of 4 runs],,,,,,86.1% [middle of 4 runs],75.3% [middle of 4 runs],,"viability, T/C (compound 0.000316 µM): 90.9% [middle of 4 runs]; viability, T/C (compound 0.001 µM): 88.4% [middle of 4 runs]"
CC(Nc1ccc2c(c1)OCCn1cc(N3C(=O)OCC3C(F)F)nc1-2)C(N)=O (stereo unspecified),79.5% [middle of 4 runs],63.3% [middle of 4 runs],52.5% [middle of 4 runs],43.4% [middle of 4 runs],33.8% (2×) and 32.1% and 37.8%,30.5% [middle of 4 runs],,,386 nM [middle of 4 runs],
CC1(C)CCC(Nc2ncc(C(F)(F)F)c(-c3c[nH]c4c(P(C)(C)=O)c(C#N)ccc34)n2)CN1 (stereo unspecified),,,,,,,,,,"viability, T/C (compound 0.003 µM): 61.7% [middle of 4 runs]; viability, T/C (compound 0.00949 µM): 58.9% [middle of 4 runs]; viability, T/C (compound 0.03 µM): 58.4% [middle of 4 runs]; viability, T/C (compound 0.0949 µM): 60.6% [middle of 4 runs]; viability, T/C (compound 0.3 µM): 58% [middle of 4 runs]"
CC1(O)CCCC1n1c(=O)c(C(F)F)cc2cnc(NC3CCN(S(C)(=O)=O)CC3)nc21 (stereo unspecified),88.7% [middle of 4 runs],86.2% [middle of 4 runs],81.6% [middle of 4 runs],91.5% [middle of 4 runs],93.8% [middle of 4 runs],47% [middle of 4 runs],,,,
CCC(CC)c1cc(NC2CCC(N)C2)n2nccc2n1 (stereo unspecified),101% [middle of 4 runs],106% [middle of 4 runs],100% and 103% (2×) and 138%,111% and 103% (2×) and 118%,5.03% [middle of 4 runs],0.67% [middle of 4 runs],,,1.86 µM [middle of 4 runs],
CCN1CCN(Cc2ccc(Nc3ncc(F)c(-c4cc(F)c5nc(C)n(C(C)C)c5c4)n3)nc2)CC1,82.3% [middle of 4 runs],80.7% [middle of 4 runs],75.6% [middle of 4 runs],67% [middle of 4 runs],,,94.3% [middle of 4 runs],85% [middle of 4 runs],> 1000 nM,
CCc1c2c(nc3ccc(O)cc13)-c1cc3c(c(=O)n1C2)COC(=O)[C@]3(O)CC,,,,,,,,,26.9 nM [middle of 4 runs],"viability, T/C (compound 0.000949 µM): 93.3% [middle of 4 runs]; viability, T/C (compound 0.003 µM): 79% [middle of 4 runs]; viability, T/C (compound 0.00949 µM): 65.1% [middle of 4 runs]; viability, T/C (compound 0.03 µM): 48.5% [middle of 4 runs]; viability, T/C (compound 0.0949 µM): 27.1% [middle of 4 runs]; viability, T/C (compound 0.3 µM): 7.59% [middle of 4 runs]"
CCn1c(-c2cc(N3CCN(C)CC3)cnc2C(C)OC)c2c3cc(ccc31)-c1csc(n1)CC(NC(=O)C1CC1C)C(=O)N1CCCC(N1)C(=O)OCC(C)(C)C2 (stereo unspecified),,,,,,,,,,"viability, T/C (compound 0.000949 µM): 25.7% [middle of 8 runs]; viability, T/C (compound 0.003 µM): 11.3% [middle of 8 runs]; viability, T/C (compound 0.00949 µM): 6.53% [middle of 8 runs]; viability, T/C (compound 0.03 µM): 4.27% [middle of 8 runs]; viability, T/C (compound 0.0949 µM): 3.45% [middle of 8 runs]; viability, T/C (compound 0.3 µM): 2.94% [middle of 8 runs]; IC50 (compound alone, run of 08/26/2024): < 0.949 nM"
CCn1c(-c2cccnc2C(C)OC)c2c3cc(ccc31)N1CCOC(CC(NC(=O)C(C(C)C)N(C)C(=O)C3(F)CCN(C(=O)C#CC(C)(C)N(C)C)CC3)C(=O)N3CCCC(N3)C(=O)OCC(C)(C)C2)C1 (stereo unspecified),,,,,,,,,,"viability, T/C (compound 0.000949 µM): 15.2% [middle of 8 runs]; viability, T/C (compound 0.003 µM): 15% [middle of 8 runs]; viability, T/C (compound 0.00949 µM): 15.1% [middle of 7 runs]; viability, T/C (compound 0.03 µM): 13.5% [middle of 8 runs]; viability, T/C (compound 0.0949 µM): 12.2% [middle of 8 runs]; viability, T/C (compound 0.3 µM): 10.3% [middle of 8 runs]; IC50 (compound alone, run of 08/20/2024): < 0.949 nM"
C[C@@H](NC(=O)c1ncnc(N)c1Cl)c1ncc(C(=O)Nc2cc(C(F)(F)F)c(Cl)cn2)s1,115% [middle of 4 runs],120% (2×) and 125% (2×),129% and 122% (2×) and 128%,121% [middle of 4 runs],102% [middle of 4 runs],79% [middle of 4 runs],,,> 10000 nM,
Nc1ccn(C2OC(CO)C(O)C2(F)F)c(=O)n1 (stereo unspecified),79.1% [middle of 4 runs],71.7% [middle of 4 runs],69.5% [middle of 4 runs],61.7% [middle of 4 runs],,,93.3% [middle of 4 runs],81% [middle of 4 runs],> 1000 nM,
O=C(c1ccc(F)c(F)c1Nc1ccc(I)cc1F)N1CC(O)([C@@H]2CCCCN2)C1,39.8% [middle of 4 runs],24% [middle of 4 runs],11.1% [middle of 4 runs],3.21% [middle of 4 runs],,,85.1% [middle of 4 runs],58.9% [middle of 4 runs],17.3 nM [middle of 4 runs],
